Assay [1] concerns E. indica IISS population (homozygous TIPS in EPSPS). The assay can be described thus: Whole-plant dose-response assay, IISS population. In kind it is in vivo, Eleusine indica. To be noted: glyphosate alone, fresh weight at 21 DAT, value ± SE. Here is the method:
(§1) Plants with homozygous mutations Pro106Ser (P106S), Pro106Leu (P106L), Thr102Ile + Pro106Ser (TIPS), and WT were screened from a population with a similar background, as we previously described. […] Plants with the same confirmed genotype were cultured (bulk in isolation) and the seeds were produced and purified. The purified subpopulations were named SS, LL, IISS, and WT. […] The plants were cultured under greenhouse conditions of day and night temperatures of 30 °C and 20 °C (±2 °C), respectively, with a relative humidity of 60% ± 20%, and a 14-h photoperiod, during which LEDs provided light intensity of 300 μmol m^−2 s^−1. After thinning, eight plants per pot were maintained. […] [18]. Thereafter, P450- (10 mM piperonylbutoxide) and GST-inhibitors (3 mM 4-chloro-7-nitro-1, 2, 3-benzoxadiazole) were sprayed to exclude other non-target-site resistance mechanisms. […] Water and inhibitors were applied through control spraying (Supplementary Tables S1 and S3). The fresh weight of the fresh aboveground tissues was measured at 21 DAT. Whole-plant assays were repeated twice in a completely randomised design.
(§2) Data from the whole-plant assays and emerged seedlings were analysed through nonlinear regression using a log-logistic model: y = y0 + a/[1 + (x/x0)^b] in SigmaPlot 12.0 (Systat Software, San Jose, CA, USA).

The test system of assay [2] is E. indica LL population (homozygous P106L in EPSPS). The assay can be described thus: Whole-plant dose-response assay, LL population. Format: in vivo, Eleusine indica. Conditions: glyphosate alone, fresh weight at 21 DAT, value ± SE. Here is the method: as §1, §2
For assay [3], the system named is E. indica SS population (homozygous P106S in EPSPS). Put plainly: Whole-plant dose-response assay, SS population. Format: in vivo, Eleusine indica. Conditions: glyphosate alone, fresh weight at 21 DAT, value ± SE. On the procedure: as §1, §2
Assay [4] addresses E. indica EPSPS Thr102Ile + Pro106Ser (TIPS) mutant, recombinant expressed in E. coli (Eleusine indica, UniProt Q95AK0, P107S/T103I). The assay can be described thus: biochemical. In kind it is binding. Here is the method:
(§3) Target EPSPS genes with different mutations were amplified through PCR using primers (Supplementary Table S4) and the synthesised cDNA, then cloned into the BamHI and HindIII cleavage sites of the pET-28a expression vector (New England Biolabs Inc., Ipswich, MA, USA). After DNA sequencing, the pET-28a plasmid (Thermo Fisher Scientific Inc., Waltham MA, USA) containing the target genes was transformed into BL21 (DE3) cells (Thermo Fisher Scientific Inc.). Selected clones were cultured in Luria-Bertani medium. Cells containing target genes that had grown to an OD600 of 0.5 were induced with […] IPTG (0487; Amresco LLC, Solon, OH, USA) at 37 °C for 4 h. The cells were then pelleted through centrifugation at 10,000× g for 10 min and resuspended in 50 mM Tris-HCl and 150 mM NaCl, pH 7.4 (buffer A). The suspension was sonicated and centrifuged at 12,000× g for 30 min, the supernatant was filtered through a 0.22 µm membrane and passed through a HiTrap His column (10318950; Cytiva, Global Life Sciences Solutions USA, LLC., Marlborough, MA, USA). Target proteins were eluted with 50 mM Tris-HCl, 150 mM NaCl, 500 mM imidazole, pH 7.4 (buffer B), resolved through SDS-PAGE, and identified through MALDI-TOF mass spectrometry. Target protein concentrations were determined using the Bradford method (500-0001) with Dye Reagent (both from Bio-Rad Laboratories Inc., Hercules, CA, USA).
(§4) To prevent primary amines reducing the biotinylation ratio, the EPSPS and mutations were exchanged with PBS buffer using a PD10 desalting column (17085101; Cytiva, Global Life Sciences Solutions USA, LLC.) as described by the manufacturer. The proteins were then concentrated using an ultrafilter (Merck KGaA, Darmstadt, Germany), then the concentrations were determined, as described above. The proteins were biotinylated using the EZ-Link™ Sulfo-NHS-LC-biotinylation kit (21435; Thermo Fisher Scientific Inc.) as described by the manufacturer. A mixture of protein and sulfo-NHS-LC-biotin at a molar ratio of 1:5 was incubated at 4 °C for 16 h, then free biotin molecules were removed using a PD10 desalting column and biotinylated protein concentrations were measured using the Bradford method.
(§5) We used a ForteBio Octet 96 with high-capacity Super Streptavidin (SSA) biosensors (18-5057; Sartorius Stedim Biotech GmbH, Göttingen, Germany) to study the protein-small molecule binding, and to derive the relevant kinetic data, as well as the affinity constants. The SSA sensors were activated in 50 mM HEPES buffer (pH 7.5) containing 0.02% Tween 20 (v/v) for 10 min, then biotinylated proteins were loaded onto them online for 2 min. Thereafter, the sensors were quenched with 2 μg mL^−1 of biocytin (B1592 Thermo Fisher Scientific Inc.) for 60 s. […] To obtain accurate interaction kinetics, a reference well (containing only buffer) and a reference biosensor were included in the assay for double subtraction analysis.
(§6) Data for protein-small molecule binding studies and curve fitting were analysed using ForteBio Data Analysis Software v. 9.0. Dissociation constants (KD) indicating binding affinity for protein-small molecules were derived by determining Kon and Koff (association and disassociation rate constants, respectively); KD = Koff/Kon.

The target in assay [5] is E. indica EPSPS Pro106Leu (P106L) mutant, recombinant expressed in E. coli (Eleusine indica, UniProt Q95AK0, P107L). Put plainly: biochemical. In kind it is binding. Here is the method:
as §3, §4, §5, §6

Assay [6] has as its target E. indica EPSPS Pro106Ser (P106S) mutant, recombinant expressed in E. coli (Eleusine indica, UniProt Q95AK0, P107S). The assay can be described thus: biochemical. Format: binding. Here is the method: as §3, §4, §5, §6
Assay [7] addresses T1, natural (wild type) E. indica EPSPS (EiEPSPS), recombinant expressed in E. coli (Eleusine indica, UniProt Q95AK0).
T1 sequence (Q95AK0 43-445): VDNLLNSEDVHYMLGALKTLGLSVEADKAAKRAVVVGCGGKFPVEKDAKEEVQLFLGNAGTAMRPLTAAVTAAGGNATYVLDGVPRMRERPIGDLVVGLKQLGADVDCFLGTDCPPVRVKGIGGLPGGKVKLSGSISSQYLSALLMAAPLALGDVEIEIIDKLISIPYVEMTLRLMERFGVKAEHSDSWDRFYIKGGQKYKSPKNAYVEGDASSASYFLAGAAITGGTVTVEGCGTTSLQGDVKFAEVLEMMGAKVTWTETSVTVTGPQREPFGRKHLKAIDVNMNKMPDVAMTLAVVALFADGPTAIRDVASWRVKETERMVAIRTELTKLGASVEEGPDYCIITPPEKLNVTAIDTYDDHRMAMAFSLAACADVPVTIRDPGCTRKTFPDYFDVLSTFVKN
Put plainly: ForteBio Octet binding kinetics, wild type EPSPS. Here is the method:
as §3, with “Target proteins were eluted with 50 mM Tris-HCl, 150 mM NaCl, 500 mM imidazole, pH 7.4 (buffer B), resolved through SDS-PAGE, and identified through MALDI-TOF mass spectrometry.” left out
as §4, with “The proteins were biotinylated using the EZ-Link™ Sulfo-NHS-LC-biotinylation kit (21435; Thermo Fisher Scientific Inc.) as described by the manufacturer.” left out, “method. […]” for “method.”
(§7) Data for protein-small molecule binding studies and curve fitting were analysed using ForteBio Data Analysis Software v. […]
(In general: BLI is a label-free optical method that tracks binding on a fibre tip over time.)

Another assay relates to wild type (WT) E. indica. The assay can be described thus: Shikimate accumulation assay, WT population. Format: in vivo, Eleusine indica. Conditions: 1800 g a.e. ha^−1 (7.1 mM) glyphosate, seven DAT. On the procedure: Leaf tissue samples collected on 1, 3, 5, and 7 DAT were finely ground in liquid nitrogen, added to 1.0 mL of 0.25 mol L^−1 cold HCl, and centrifuged at 12,000 rpm for 30 min. Supernatants (0.2 mL) were incubated with 2 mL of 1% periodic acid for 3 h at room temperature. Thereafter, 2 mL of 1 mol L^−1 NaOH and 1.2 mL of 0.1 mol L^−1 glycine were added, then the optical density of 0.2 mL/well was determined in 96-well plates at 380 nm using a Tecan Infinite 200 Pro plate reader (Tecan Group Ltd., Männedorf, Switzerland). The results for all samples were compared with a standard curve of 0.1–400.0 μg shikimate and are expressed as μg of shikimate g^−1 fresh tissue. This experiment was repeated twice.

Assay [8] has as its target E. indica EPSPS enzymes (WT, P106L, P106S, TIPS). Put plainly: ForteBio Octet binding, range over the EPSPS enzymes. On the set-up: species or system Eleusine indica. On the procedure: (§8) Target EPSPS genes with different mutations were amplified through PCR using primers (Supplementary Table S4) and the synthesised cDNA, then cloned into the BamHI and HindIII cleavage sites of the pET-28a expression vector (New England Biolabs Inc., Ipswich, MA, USA). After DNA sequencing, the pET-28a plasmid (Thermo Fisher Scientific Inc., Waltham MA, USA) containing the target genes was transformed into BL21 (DE3) cells (Thermo Fisher Scientific Inc.). Selected clones were cultured in Luria-Bertani medium. Cells containing target genes that had grown to an OD600 of 0.5 were induced with […] IPTG (0487; Amresco LLC, Solon, OH, USA) at 37 °C for 4 h. […] Target protein concentrations were determined using the Bradford method (500-0001) with Dye Reagent (both from Bio-Rad Laboratories Inc., Hercules, CA, USA).
To prevent primary amines reducing the biotinylation ratio, the EPSPS and mutations were exchanged with PBS buffer using a PD10 desalting column (17085101; Cytiva, Global Life Sciences Solutions USA, LLC.) as described by the manufacturer. The proteins were then concentrated using an ultrafilter (Merck KGaA, Darmstadt, Germany), then the concentrations were determined, as described above. […]
as §7

In assay [9] the target is T2, His-tagged recombinant EiEPSPS, Pro106Leu (LL) (Eleusine indica, UniProt Q95AK0, P107L).
T2 sequence (Q95AK0 43-445 P107L): T1 sequence (Q95AK0 43-445) with P65L
Put plainly: EPSPS Michaelis-Menten kinetics, Pro106Leu. In kind it is biochemical. To be noted: P106L mutant vs natural EPSPS.
Text: (§9) Figure 2 Characteristics of EPSPS with different mutations (WT, P106S, P106L, and TIPS) from purified enzyme extracts of Escherichia coli variants. […] Reactions were detected as phosphate concentrations based on a standard curve (y = 97.049x − 0.4245, R^2 = 0.99). This experiment was repeated twice with three biological replicates.
as §8, with “h. The cells were then pelleted through centrifugation at 10,000× g for 10 min and resuspended in 50 mM Tris-HCl and 150 mM NaCl, pH 7.4 (buffer A).” for “h.”

The target of assay [10] is T3, His-tagged recombinant EiEPSPS, Thr102Ile + Pro106Ser (IISS) (Eleusine indica, UniProt Q95AK0, P107S/T103I).
T3 sequence (Q95AK0 43-445 T103I/P107S): T1 sequence (Q95AK0 43-445) with T61I, P65S
Put plainly: EPSPS Michaelis-Menten kinetics, Thr102Ile + Pro106Ser. In kind it is biochemical. Conditions: TIPS mutant vs natural EPSPS.
Text: as §9
as §8, with “h. The cells were then pelleted through centrifugation at 10,000× g for 10 min and resuspended in 50 mM Tris-HCl and 150 mM NaCl, pH 7.4 (buffer A).” for “h.”

Assay [11] addresses T4, His-tagged recombinant EiEPSPS, Pro106Ser (SS) (Eleusine indica, UniProt Q95AK0, P107S).
T4 sequence (Q95AK0 43-445 P107S): T1 sequence (Q95AK0 43-445) with P65S
Put plainly: EPSPS Michaelis-Menten kinetics, Pro106Ser. In kind it is biochemical. To be noted: P106S mutant vs natural EPSPS.
Text: as §9
as §8, with “h. The cells were then pelleted through centrifugation at 10,000× g for 10 min and resuspended in 50 mM Tris-HCl and 150 mM NaCl, pH 7.4 (buffer A).” for “h.”

[12] abbreviates: pH 7.5, read-out: Kon, association rate constant.

The text below walks through data of paper PMC10179075 (International Journal of Molecular Sciences, 2023).

The structures appear in SMILES notation. Numbering of substitutions follows the chain as printed. pKd: −log10 of the molar value. Read-outs that look alike come from different tables or passages of the source.

Sequence of E. indica EPSPS Thr102Ile + Pro106Ser (TIPS) mutant, recombinant expressed in E. coli (Q95AK0 entry or part of it T103I/P107S): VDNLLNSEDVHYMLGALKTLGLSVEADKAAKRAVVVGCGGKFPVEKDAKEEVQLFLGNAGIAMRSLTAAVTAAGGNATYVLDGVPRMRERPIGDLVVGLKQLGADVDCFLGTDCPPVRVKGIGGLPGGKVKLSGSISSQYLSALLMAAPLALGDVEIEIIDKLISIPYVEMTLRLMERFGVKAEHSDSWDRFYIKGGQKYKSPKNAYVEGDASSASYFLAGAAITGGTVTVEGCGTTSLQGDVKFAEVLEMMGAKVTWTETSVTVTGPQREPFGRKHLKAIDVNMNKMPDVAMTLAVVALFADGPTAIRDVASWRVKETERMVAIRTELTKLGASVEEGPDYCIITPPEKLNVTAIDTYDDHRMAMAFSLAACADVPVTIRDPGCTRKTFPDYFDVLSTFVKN
Sequence of E. indica EPSPS Pro106Leu (P106L) mutant, recombinant expressed in E. coli (Q95AK0 entry or part of it P107L): as the sequence (Q95AK0 entry or part of it T103I/P107S) above, with I61T, S65L counted along it
Sequence of E. indica EPSPS Pro106Ser (P106S) mutant, recombinant expressed in E. coli (Q95AK0 entry or part of it P107S): as the sequence (Q95AK0 entry or part of it T103I/P107S) above, with I61T counted along it

On to `O=C(O)CNCP(=O)(O)O` [Glyphosate, glyphosate], for which the “x0, herbicide dose required for 50% plant growth reduction (GR50)” value in assay [1] was 3272.9 ± 164.1 g a.e. ha^-1; in assay [2] it was 707.2 ± 122.1 g a.e. ha^-1; in assay [3] it was 540.5 ± 25.6 g a.e. ha^-1. The pKd was 4.64 in assay [4], 4.55 in assay [5], 4.60 in [6] and 4.24 in assay [7]. Further, the “shikimate accumulation in leaf tissues” value in the assay on wild type (WT) E. indica stood at 366.4 µg/g.
Regarding `C=C(OP(=O)(O)O)C(=O)O` [PEP, phosphoenolpyruvate], the pKd in assay [8] is 2.51 to 2.96; in assay [4] it was 2.70; in assay [5], 2.96; in [6], 2.92; in assay [7] (Wild type EPSPS, Octet SSA biosensors, HEPES pH 7.5, read-out: KD, dissociation constant (KD = Koff/Kon)) it was 2.51. Also, the “Km (PEP) fold relative to natural EPSPS” value in assay [9] came out at 2.4 fold; in assay [10], 4.1 fold; in [11] it was 0.7 fold. Further, the kon in assay [4] (Thr102Ile + Pro106Ser EPSPS, Octet SSA biosensors, HEPES pH 7.5, read-out: Kon, association rate constant) worked out at 33 M⁻¹ s⁻¹; in assay [5] (setting [12]), 31.3 M⁻¹ s⁻¹; in assay [6] (setting [12]) it was 31.8 M⁻¹ s⁻¹; in assay [7] (Wild type EPSPS, Octet SSA biosensors, HEPES pH 7.5, read-out: Kon, association rate constant), 8 M⁻¹ s⁻¹.

The term kon denotes the rate constant with which the complex forms.
